Experiment: xn = mol fraction of the nth substance listed
Conditions: 293.15 K, 101.3 kPa

CC(=O)[O-].Cn1cc[nH+]c1 + CCO
Conditions	electrical conductivity [S/m]
x2 = 0.0616	0.449
x2 = 0.0975	0.527
x2 = 0.2701	0.821
x2 = 0.3985	1.33
x2 = 0.4978	1.7
x2 = 0.6604	2.27
x2 = 0.7397	2.34
x2 = 0.7865	1.92
x2 = 0.8291	1.52
x2 = 0.8486	1.31
x2 = 0.9522	0.312
x2 = 0.9648	0.199
x2 = 0.9725	0.139

CC(=O)[O-].Cn1cc[nH+]c1 + O
Conditions	electrical conductivity [S/m]
x2 = 0	0.326
x2 = 0.2845	2.06
x2 = 0.4277	3.44
x2 = 0.5098	4.31
x2 = 0.6959	6.95
x2 = 0.8691	9.7
x2 = 0.8823	8.7
x2 = 0.9207	5.18
x2 = 0.9425	2.9
x2 = 0.9559	1.7
x2 = 0.9677	0.849
